Tested on: rat model of pulmonary hypertension induced by exposure to hypoxia
Assay: Butyrate-containing water in rat model of pulmonary hypertension induced by exposure to hypoxia
Format: in vivo, SD rats
Details: 100 mM butyrate in water ad libitum for three weeks, oral, compared to vehicle administration group
Experimental: Rats were anesthetized by inhalation of isoflurane (Pfizer) for induction of sedation and analgesia. Throughout the procedure, the body temperature of the rats was maintained at 37 to 38° C. using a rectal thermistor coupled with a thermostatically controlled heating pad. The trachea was cannulated, and the lungs were ventilated with a mouse ventilator (Harvard Apparatus) at a tidal volume of 10 μL/g at a frequency of 70/min. A polyethylene tube was inserted into the right external jugular vein and advanced into the right ventricle to measure right ventricular pressure (RVP). RVP signals were detected by a pressure transducer (MLT0670; ADInstruments), and the signals were relayed to pressure amplifiers (ML117; ADInstruments), and then were sampled continuously with a PowerLab system (ADInstruments, Colorado Springs, Colo.) and recorded on a computer using Chart software (ADInstruments). Heart rate was derived from the right ventricular systolic peaks.
After right ventricular systolic pressure measurement, the rats were killed by anesthesia overdose, and the heart was excised. […] The tissues were blotted, and the weight of the right ventricle (RV) and the weight of the left ventricle (LV)+septum were measured. The ratio of RV to LV+septum weight (the ratio of RV to LV weight) was calculated and used as an index of right ventricular hypertrophy. […]

## CCCC(=O)[O-].[Na+] [butyrate, sodium butyrate]
FIG. 33(A)
  right ventricular systolic pressure: significant inhibition
FIG. 33(B)
  right ventricular hypertrophy (ratio of RV to LV weight): significant inhibition

— patent US20230172996A1, “COMPOSITION FOR ALLEVIATING PULMONARY HYPERTENSION, METHOD FOR PREDICTING PROGNOSIS OF PULMONARY HYPERTENSION, METHOD FOR ASSISTING IN DETERMINING SEVERITY OF PULMONARY HYPERTENSION, AND METHOD FOR ASSISTING IN DIAGNOSING PULMONARY HYPERTENSION” (JSR Corporation, priority 2020, published 2023)
